We go through 46 compounds from patent US9296697B2, “Hetaryl-substituted guanidine compounds and use thereof as binding partners for 5-HT5-receptors” (Abbott Laboratories, priority 2005, dated 2016).

Each structure is given as a SMILES string.

This assay deals with T1, h5-HT5A receptor (Homo sapiens, UniProt P47898).
T1 construct: expressed in transfected cells; membranes used
T1 sequence (P47898 whole entry): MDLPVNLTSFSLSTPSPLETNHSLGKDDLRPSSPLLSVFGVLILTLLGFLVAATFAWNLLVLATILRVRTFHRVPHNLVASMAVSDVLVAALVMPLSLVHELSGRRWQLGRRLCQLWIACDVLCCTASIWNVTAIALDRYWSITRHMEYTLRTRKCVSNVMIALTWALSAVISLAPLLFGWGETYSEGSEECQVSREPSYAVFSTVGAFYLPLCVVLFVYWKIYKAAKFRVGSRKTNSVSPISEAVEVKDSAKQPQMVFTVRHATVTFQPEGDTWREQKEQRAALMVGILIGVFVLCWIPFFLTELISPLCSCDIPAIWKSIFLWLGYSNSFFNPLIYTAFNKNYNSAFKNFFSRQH
Briefly: h5-HT5A [3H]5-CT binding assay. Particulars: affinity for 5-HT5A; membranes of HEK293 cells expressing the h5-HT5A receptor gene, 2.5 nM [3H]5-CT. The procedure:
h5-HT5A [^3H]5-CT Binding Assay
Membranes of HEK293 cells which permanently express the h5-HT5A receptor gene were incubated in 100 mM tris-HCl buffer (pH 7.7) containing 1 mM EDTA, in the presence of 2.5 nM [^3H]5-CT (total volume 600 μL). The total binding is defined as the binding that is observed when the membranes are incubated in the presence of only the radioligand. The inhibition induced by the compound is determined by incubation of cell membranes in the presence of the radioligand and various concentrations of the compound of interest. Nonspecific binding is defined as the [^3H]5-CT binding obtained by incubation of the membranes, the same as for the total binding, but in the presence of 10 μM methiothepine. Following incubation for 75 min at 30° C., the membrane suspension was filtered through a GF/B-Filter coated with 0.03% PEI, using a Skatron® harvesting system. The residual radioactivity in the filter was quantified by liquid scintillation counting.
Various concentrations of the test substances were used in both assays, and the Ki or IC50 values were determined.
Usually Ki stands for a measure of affinity in units of concentration, obtained from inhibition or displacement. Read a high Ki as weaker binding. The compound `COc1ccccc1CNC(=N)Nc1ncccc1C` [Example 12, N-(2-Methoxybenzyl)-N′-(3-methylpyridin-2-yl)guanidine acetate] returned an inhibition constant Ki of under 100 nM.

The compound `Cc1ccc(NC(=N)NCc2ccccc2OC(F)(F)F)nc1` [Example 24, N-(5-Methylpyridin-2-yl)-N′-[2-(trifluoromethoxy)benzyl]guanidine] showed a Ki of under 100 nM.

As for `COc1ccccc1CNC(=N)Nc1ccc(-c2cccs2)cn1` [Example 87, N-(2-Methoxybenzyl)-N′-[5-(2-thienyl)pyridin-2-yl]guanidine], the Ki is under 100 nM.

The compound `COc1cccc(OC)c1CNC(=N)Nc1cc2ccccc2cn1` [Example 39, N-(2,6-Dimethoxybenzyl)-N′-isoquinolin-3-ylguanidine] registered a Ki of under 100 nM.

The compound `N#Cc1ccc(NC(=N)NCc2ccccc2Cl)nc1` [Example 98, N-(2-Chlorobenzyl)-N′-(5-cyanopyridin-2-yl)guanidine acetate] registered a Ki of under 300 nM.

For `COc1cccc(OC)c1CNC(=N)Nc1ccc(Cc2ccccc2)cn1` [Example 68, N-(5-Benzylpyridin-2-yl)-N′-(2,6-dimethoxybenzyl)guanidine acetate], the Ki is under 100 nM.

Compound `COc1cccc(OC)c1CNC(=N)Nc1cccc(Cc2ccccc2)n1` [Example 70, N-(6-Benzylpyridin-2-yl)-N′-(2,6-dimethoxybenzyl)guanidine acetate] gave a Ki of under 100 nM.

In turn, `COc1cccc(F)c1CNC(=N)Nc1ccc(C)cn1` [Example 20, N-(2-Fluoro-6-methoxybenzyl)-N′-(5-methylpyridin-2-yl)guanidine acetate] had a Ki of under 100 nM.

Regarding `COc1ccccc1CNC(=N)Nc1ncccc1Br` [Example 47, N-(3-Bromopyridin-2-yl)-N′-(2-methoxybenzyl)guanidine acetate], the Ki is under 10000 nM.

On to `COc1cccc(F)c1CNC(=N)Nc1ccc(C#N)cn1` [Example 96, N-(5-Cyanopyridin-2-yl)-N′-(2-fluoro-6-methoxybenzyl)guanidine acetate], for which the Ki is under 100 nM.

Turning to `COc1cccc(OC)c1CNC(=N)Nc1cc(C)ccn1` [Example 30, N-(2,6-Dimethoxybenzyl)-N′-(4-methylpyridin-2-yl)guanidine acetate], the Ki is under 100 nM.

Compound `N=C(NCc1ccccc1Cl)Nc1ccc(I)cn1` [Example 94, N-(2-Chlorobenzyl)-N′-(5-iodopyridin-2-yl)guanidine acetate] registered a Ki of under 300 nM.

`COc1cccc(OC)c1CNC(=N)Nc1cc(-c2ccccc2)ccn1` [Example 56, N-(2,6-Dimethoxybenzyl)-N′-(4-phenylpyridin-2-yl)guanidine diacetate] yielded a Ki of under 100 nM.

`COc1cccc(OC)c1CNC(=N)Nc1ncccc1-c1ccccc1` [Example 60, N-(2,6-Dimethoxybenzyl)-N′-(3-phenylpyridin-2-yl)guanidine acetate] had a Ki of under 300 nM.

Compound `COc1ccccc1CNC(=N)Nc1cc(C)ccn1` [Example 29, N-(2-Methoxybenzyl)-N′-(4-methylpyridin-2-yl)guanidine acetate] returned a Ki of under 100 nM.

Compound `COc1ccccc1CNC(=N)Nc1ccc(-c2ccc(F)cc2)cn1` [Example 88, N-[5-(4-Fluorophenyl)pyridin-2-yl]-N′-(2-methoxybenzyl)guanidine acetate] gave an inhibition constant Ki of under 100 nM.

Regarding `COc1cccc(Cl)c1CNC(=N)Nc1ccc(C#N)cn1` [Example 95, N-(2-Chloro-6-methoxybenzyl)-N′-(5-cyanopyridin-2-yl)guanidine acetate], the Ki is under 100 nM.

Regarding `COc1cccc(OC)c1CNC(=N)Nc1ncc(C(F)(F)F)cc1Cl` [Example 11, N-[3-Chloro-5-(trifluoromethyl)pyridin-2-yl]-N′-(2,6-dimethoxybenzyl)guanidine acetate], the Ki was under 10000 nM.

`N#Cc1cccc(NC(=N)NCc2c(Cl)cccc2Oc2ccccc2)n1` [Example 82, N-(2-Chloro-6-phenoxybenzyl)-N′-(6-cyanopyridin-2-yl)guanidine acetate] registered a Ki of under 100 nM.

The compound `COc1cccc(Cl)c1CNC(=N)Nc1cccc(C#N)n1` [Example 78, N-(2-Chloro-6-methoxybenzyl)-N′-(6-cyanopyridin-2-yl)guanidine acetate] gave a Ki of under 100 nM.

`COc1ccccc1CNC(=N)Nc1ccc[n+](C)c1` [Example 35, 3-({Imino[(2-methoxybenzyl)amino]methyl}amino)-1-methylpyridinium acetate] displayed a Ki of under 10000 nM.

On to `COc1cccc(F)c1CNC(=N)Nc1cccc(Br)n1` [Example 72, N-(6-Bromopyridin-2-yl)-N′-(2-fluoro-6-methoxybenzyl)guanidine], for which the Ki was under 100 nM.

In turn, `COc1cccc(OC)c1CNC(=N)Nc1ncccc1C` [Example 13, N-(2,6-Dimethoxybenzyl)-N′-(3-methylpyridin-2-yl)guanidine acetate] displayed a Ki of under 100 nM.

`COc1ccccc1CNC(=N)Nc1cc(-c2ccccc2)ccn1` [Example 58, N-(2-Methoxybenzyl)-N′-(4-phenylpyridin-2-yl)guanidine acetate] returned a Ki of under 100 nM.

For the compound `COc1cccc(C)c1CNC(=N)Nc1cccc(C#N)n1` [Example 76, N-(2-Methoxy-6-methylbenzyl)-N′-(6-cyanopyridin-2-yl)guanidine acetate], the Ki was under 100 nM.

Turning to `CCOc1ccccc1CNC(=N)Nc1cccc(C#N)n1` [Example 81, N-(6-Cyanopyridin-2-yl)-N′-(2-ethoxybenzyl)guanidine acetate], the Ki is under 100 nM.

In turn, `COc1ccccc1CNC(=N)Nc1cccc(C)n1` [Example 8, N-(2-Methoxybenzyl)-N′-(6-methylpyridin-2-yl)guanidine] came in with a Ki of under 100 nM.

The compound `COc1ccccc1CNC(=N)Nc1cccc(C#N)n1` [Example 52, N-(6-Cyanopyridin-2-yl)-N′-(2-methoxybenzyl)guanidine acetate] had a Ki of under 100 nM.

`COc1cccc(OC)c1CNC(=N)Nc1ncccc1-c1ccc(F)cc1` [Example 61, N-(2,6-Dimethoxybenzyl)-N′-(3-(4-fluorophenyl)pyridin-2-yl)guanidine acetate] yielded a Ki of under 300 nM.

Compound `COc1ccccc1CNC(=N)Nc1cccc(Br)n1` [Example 42, N-(6-Bromopyridin-2-yl)-N′-(2-methoxybenzyl)guanidine] registered a Ki of under 100 nM.

`Cc1ccc(NC(=N)NCc2ccccc2OC(F)F)nc1` [Example 26, N-[2-(Difluoromethoxy)benzyl]-N′-(5-methylpyridin-2-yl)guanidine]: the Ki was under 100 nM.

Consider `COc1cccc(F)c1CNC(=N)Nc1cccc(C#N)n1` [Example 77, N-(6-Cyanopyridin-2-yl)-N′-(2-fluoro-6-methoxybenzyl)guanidine acetate], for which the Ki was under 100 nM.

In turn, `COc1ccccc1CNC(=N)Nc1ccc2ccccc2n1` [Example 40, N-(2-Methoxybenzyl)-N′-quinolin-2-yl-guanidine acetate] yielded an inhibition constant (Ki) of under 100 nM.

On to `COc1cccc(OC)c1CNC(=N)Nc1cccc(C#N)n1` [Example 55, N-(6-Cyanopyridin-2-yl)-N′-(2,6-dimethoxybenzyl)guanidine acetate], for which the Ki was under 100 nM.

For `COc1ccccc1CNC(=N)Nc1cccc(-c2cccs2)n1` [Example 49, N-(2-Methoxybenzyl)-N′-[6-(2-thienyl)pyridin-2-yl]guanidine], the Ki is under 100 nM.

In turn, `COc1cccc(C)c1CNC(=N)Nc1cccc(Br)n1` [Example 71, N-(6-Bromopyridin-2-yl)-N′-(2-methoxy-6-methylbenzyl)guanidine] yielded a Ki of under 100 nM.

`COc1cccc(C)c1CNC(=N)Nc1ccc(I)cn1` [Example 93, N-(5-Iodopyridin-2-yl)-N′-(2-methoxy-6-methylbenzyl)guanidine acetate] gave a Ki of under 100 nM.

The compound `CCOc1ccccc1CNC(=N)Nc1cccc(Br)n1` [Example 75, N-(6-Bromopyridin-2-yl)-N′-(2-ethoxybenzyl)guanidine acetate] yielded a Ki of under 100 nM.

As to `COc1ccccc1CNC(=N)Nc1ccc(C#N)cn1` [Example 90, N-(5-Cyanopyridin-2-yl)-N′-(2-methoxybenzyl)guanidine], the Ki was under 100 nM.

The compound `COc1ccccc1CN=C(N)Nc1ccc(I)cn1` [Example 4, N-(5-Iodopyridin-2-yl)-N″-(2-methoxybenzyl)guanidine] displayed a Ki of under 100 nM.

With `Cc1ccc(NC(=N)NCc2ccccc2OC(C)C)nc1` [Example 23, N-(2-Isopropoxybenzyl)-N′-(5-methylpyridin-2-yl)guanidine acetate], the Ki was under 100 nM.

`COc1ccccc1CNC(=N)Nc1ncccc1-c1ccccc1` [Example 62, N-(2-Methoxybenzyl)-N′-(3-phenylpyridin-2-yl)guanidine acetate]: the Ki was under 100 nM.

`COc1ccccc1CNC(=N)Nc1ccc(-c2ccccc2)cn1` [Example 86, N-(2-Methoxybenzyl)-N′-(5-phenylpyridin-2-yl)guanidine]: the Ki was under 100 nM.

The compound `COc1cccc(OC)c1CNC(=N)Nc1ccc2ccccc2n1` [Example 41, N-(2,6-Dimethoxybenzyl)-N′-quinolin-2-yl-guanidine acetate] registered a Ki of under 100 nM.

The compound `COc1ccccc1CNC(=N)Nc1cccc(-c2ccc(F)cc2)n1` [Example 50, N-[6-(4-Fluorophenyl)pyridin-2-yl]-N′-(2-methoxybenzyl)guanidine] showed a Ki of under 300 nM.

Compound `COc1cccc(OC)c1CNC(=N)Nc1ccccn1` [Example 5, N-(2,6-dimethoxybenzyl)-N′-pyridin-2-yl-guanidine acetate] had a Ki of under 100 nM.
